For 14 molecules, IC50, Activity and MIC results are on record in ChEMBL document CHEMBL1152671, “Structure-activity relationship studies of manzamine A: amidation of positions 6 and 8 of the beta-carboline moiety” (Bioorg Med Chem, 2009).

Values after ≈ are worked out from the molar mass of the structure shown. Active and inactive are the calls of the source. The calls are words filed in the database; no cut-off is given here. Where only a bound is given, the exact number is not on record here.

The subject of data set [1] is Plasmodium falciparum. As to the kind of experiment: Antimalarial activity against chloroquine-sensitive Plasmodium falciparum D6 infected in African green monkey (Cercopithecus aethiops) Vero cells assessed as parasite LDH activity after 72 hrs. The class given is functional, organism-based.
For data set [2], the system named is Plasmodium falciparum. Nature of the data set: Antimalarial activity against chloroquine-resistant Plasmodium falciparum W2 infected in African green monkey (Cercopithecus aethiops) (Cercopithecus aethiops) Vero cells assessed as parasite LDH activity after 72 hrs. The class given is functional, organism-based.
For the next data set, the system named is Vero. As to the kind of experiment: Cytotoxicity against african green monkey Vero cells up to 470 nM by neutral red assay. The class given is cell-based. The note with it: chlorocebus sabaeus.
Data set [3] deals with Candida albicans. As to the kind of experiment: Antifungal activity against Candida albicans by modified NCCLS method. It is filed as functional, organism-based.
Data set [4] deals with Cryptococcus neoformans. As to the kind of experiment: Antifungal activity against Cryptococcus neoformans by modified NCCLS method. It is filed as functional, organism-based.
The subject of data set [5] is Cryptococcus neoformans. Nature of the data set: Antifungal activity against Cryptococcus neoformans after 24 hrs by alamar blue assay. The class given is functional. Background: Alamar Blue is a resazurin reagent that responds to reducing activity.
Data set [6] concerns Mycobacterium intracellulare. Nature of the data set: Antibacterial activity against Mycobacterium intracellular by alamar blue assay. It is filed as functional, organism-based.
Data set [7] has as its system Mycobacterium intracellulare. As to the kind of experiment: Antibacterial activity against Mycobacterium intracellular after 24 hrs by alamar blue assay. The class given is functional.
In data set [8] the test system is Aspergillus fumigatus. Nature of the data set: Antifungal activity against Aspergillus fumigatus by modified NCCLS method. It is filed as functional, organism-based.
The test system of another data set is Escherichia coli. Nature of the data set: Antibacterial activity against Escherichia coli by modified NCCLS method. The class given is functional, organism-based.
Another data set has as its system Pseudomonas aeruginosa. Nature of the data set: Antibacterial activity against Pseudomonas aeruginosa by modified NCCLS method. It is filed as functional, organism-based.
Data set [9] deals with Candida albicans.
Description: Antifungal activity against Candida albicans after 24 hrs by alamar blue assay
In data set [10] the test system is Aspergillus fumigatus.
Description: Antifungal activity against Aspergillus fumigatus after 24 hrs by alamar blue assay
Where [11] appears, read: Cryptococcus neoformans, read-out: IC50.
The mark [12] stands for this setting: Candida albicans, read-out: IC50.

A word on the IC50: it is the midpoint of a concentration-inhibition curve. What is called MIC is the least concentration at which growth counts as inhibited. Turning to `CCCCC(=O)Nc1cccc2c1[nH]c1c(C3=C[C@@]4(O)CC/C=C\CCCCN5CC[C@@H]3[C@]3(C[C@@H]6/C=C\CCCCN6[C@H]34)C5)nccc12` [8-N-PENTAMIDOMANZAMINE A], the IC50 is 0.053 µM in the data set on Plasmodium falciparum [1]; 0.049 µM with Plasmodium falciparum [2]; “Not Active” in the data set with Candida albicans [3]; 4.63 µM in the data set with Cryptococcus neoformans [4] (setting [11]); 0.695 µM in data set [6]; “Not Active” in the data set with Aspergillus fumigatus [8]. In addition, the Activity entry with Vero is “Non-toxic”. Besides, the MIC result in the data set with Cryptococcus neoformans [5], in the data set on Candida albicans [9] and in the data set with Aspergillus fumigatus [10] was “inactive” in each case. The molecule further yielded an MIC in [7] of 0.973 µM (≈ 0.63 µg/mL). For the same molecule, the result in the data set with Escherichia coli and with Pseudomonas aeruginosa was inactive.

For `CCCCCCC(=O)Nc1ccc2[nH]c3c(C4=C[C@@]5(O)CC/C=C\CCCCN6CC[C@@H]4[C@]4(C[C@@H]7/C=C\CCCCN7[C@H]45)C6)nccc3c2c1` [6-N-OCTAMIDOMANZAMINE A], the IC50 with Plasmodium falciparum [1] was 0.696 µM; in the data set with Plasmodium falciparum [2] it was 0.754 µM; in the data set on Candida albicans [3] it was “Not Active”; with Cryptococcus neoformans [4], “Not Active”; in data set [6], 17.4 µM; in the data set on Aspergillus fumigatus [8], “Not Active”. Also, the Activity entry in the data set with Vero is on record as “Non-toxic”. Besides, the MIC result with Cryptococcus neoformans [5], in the data set with Candida albicans [9] and in the data set on Aspergillus fumigatus [10] was “inactive” in each case. For the same molecule, in data set [7], the MIC was 29 µM (≈ 19.6 µg/mL). Besides, the result in the data set with Escherichia coli and with Pseudomonas aeruginosa was inactive.

For `O=C(Nc1cccc2c1[nH]c1c(C3=C[C@@]4(O)CC/C=C\CCCCN5CC[C@@H]3[C@]3(C[C@@H]6/C=C\CCCCN6[C@H]34)C5)nccc12)C1CCCCC1` [8-CYCLOHEXAMIDOMANZAMINE A], the half-inhibitory concentration (IC50) with Plasmodium falciparum [1] is 0.95 µM; with Plasmodium falciparum [2] it was 0.995 µM; in the data set on Candida albicans [3], “Not Active”; in the data set with Cryptococcus neoformans [4], “Not Active”; in data set [6], 11.1 µM; in the data set with Aspergillus fumigatus [8] it was “Not Active”. In the data set with Vero, the Activity result is given as “Non-toxic”. Also, the MIC result in the data set with Cryptococcus neoformans [5], in the data set on Candida albicans [9] and with Aspergillus fumigatus [10] was “inactive” each time. Moreover, in data set [7], the MIC amounted to 14.8 µM (≈ 10 µg/mL). Besides, the outcome with Escherichia coli and in the data set on Pseudomonas aeruginosa was inactive.

As to `C[C@@H]1CC[C@H]2[C@@H](C)C(=O)O[C@@H]3O[C@@]4(C)CC[C@@H]1[C@]32OO4` [ARTEMISININ], the IC50 in the data set on Plasmodium falciparum [1] is 0.046 µM; in the data set on Plasmodium falciparum [2], 0.028 µM.

Regarding `O=C(O)c1cn(C2CC2)c2cc(N3CCNCC3)c(F)cc2c1=O` [CIPROFLOXACIN], the IC50 in [6] came out at 1.06 µM.

In the case of `CCCCCCC(=O)Nc1cccc2c1[nH]c1c(C3=C[C@@]4(O)CC/C=C\CCCCN5CC[C@@H]3[C@]3(C[C@@H]6/C=C\CCCCN6[C@H]34)C5)nccc12` [8-N-OCTAMIDOMANZAMINE A], the IC50 is 0.055 µM with Plasmodium falciparum [1]; 0.043 µM in the data set on Plasmodium falciparum [2]; “Not Active” in the data set with Candida albicans [3]; 1.01 µM in the data set on Cryptococcus neoformans [4] (setting [11]); 0.508 µM in data set [6]; “Not Active” in the data set with Aspergillus fumigatus [8]. In addition, the Activity entry in the data set with Vero is “Non-toxic”. Also, the MIC against Cryptococcus neoformans [5] was found to be 29 µM (≈ 19.6 µg/mL); in data set [7] it was 1.81 µM (≈ 1.23 µg/mL). Also, the result with Escherichia coli and in the data set with Pseudomonas aeruginosa was inactive. Moreover, the MIC result in the data set on Candida albicans [9] and in the data set with Aspergillus fumigatus [10] was “inactive” throughout.

As for `CC(=O)Nc1cccc2c1[nH]c1c(C3=C[C@@]4(O)CC/C=C\CCCCN5CC[C@@H]3[C@]3(C[C@@H]6/C=C\CCCCN6[C@H]34)C5)nccc12` [8-ACETAMIDOMANZAMINE A], the IC50 in the data set with Plasmodium falciparum [1] was 0.182 µM; with Plasmodium falciparum [2], 0.231 µM; with Candida albicans [3], “Not Active”; with Cryptococcus neoformans [4] (setting [11]) it was 33.4 µM; in data set [6], 1.65 µM; with Aspergillus fumigatus [8], “Not Active”. In addition, in the data set with Vero, the Activity entry is listed as “Non-toxic”. In addition, the MIC result with Cryptococcus neoformans [5], in the data set with Candida albicans [9] and in the data set with Aspergillus fumigatus [10] was “inactive” each time. Also, 2.06 µM (≈ 1.25 µg/mL) was the least that counted as inhibitory in data set [7] (MIC). Also, the outcome with Escherichia coli and with Pseudomonas aeruginosa was inactive.

In the case of `CC(C)C(=O)Nc1ccc2[nH]c3c(C4=C[C@@]5(O)CC/C=C\CCCCN6CC[C@@H]4[C@]4(C[C@@H]7/C=C\CCCCN7[C@H]45)C6)nccc3c2c1` [6-ISOBUTAMIDOMANZAMINE A], the half-maximal inhibitory concentration (IC50) is 1.1 µM in the data set with Plasmodium falciparum [1]; 1.55 µM in the data set on Plasmodium falciparum [2]; “Not Active” in the data set with Candida albicans [3]; “Not Active” in the data set with Cryptococcus neoformans [4]; 3.16 µM in [6]; “Not Active” in the data set with Aspergillus fumigatus [8]. For the same molecule, the Activity result in the data set with Vero is “Non-toxic”. The MIC result in the data set with Cryptococcus neoformans [5], in the data set with Candida albicans [9] and in the data set with Aspergillus fumigatus [10] was “inactive” each time. Moreover, in data set [7], the MIC is 3.95 µM (≈ 2.5 µg/mL). Further, the result in the data set on Escherichia coli and in the data set on Pseudomonas aeruginosa was inactive.

`CCCCC(=O)Nc1ccc2[nH]c3c(C4=C[C@@]5(O)CC/C=C\CCCCN6CC[C@@H]4[C@]4(C[C@@H]7/C=C\CCCCN7[C@H]45)C6)nccc3c2c1` [6-N-PENTAMIDOMANZAMINE A]: the IC50 was 1.24 µM with Plasmodium falciparum [1]; 1.48 µM with Plasmodium falciparum [2]; “Not Active” in the data set with Candida albicans [3]; “Not Active” in the data set on Cryptococcus neoformans [4]; 2.32 µM in data set [6]; “Not Active” in the data set with Aspergillus fumigatus [8]. In the data set on Vero, the Activity result was “Non-toxic”. Moreover, the MIC result in the data set on Cryptococcus neoformans [5], in the data set with Candida albicans [9] and in the data set on Aspergillus fumigatus [10] was “inactive” each time. Further, in data set [7], it took 3.86 µM (≈ 2.5 µg/mL) to inhibit growth (MIC). Also, the result with Escherichia coli and with Pseudomonas aeruginosa was inactive.

For `CC(=O)Nc1ccc2[nH]c3c(C4=C[C@@]5(O)CC/C=C\CCCCN6CC[C@@H]4[C@]4(C[C@@H]7/C=C\CCCCN7[C@H]45)C6)nccc3c2c1` [6-ACETAMIDOMANZAMINE A], the IC50 was 1.29 µM in the data set on Plasmodium falciparum [1]; 1.98 µM in the data set with Plasmodium falciparum [2]; “Not Active” in the data set with Candida albicans [3]; “Not Active” with Cryptococcus neoformans [4]; 9.91 µM in data set [6]; “Not Active” in the data set with Aspergillus fumigatus [8]. In addition, the Activity result in the data set with Vero is given as “Non-toxic”. Further, the MIC entry in the data set on Cryptococcus neoformans [5], with Candida albicans [9] and in the data set with Aspergillus fumigatus [10] was “inactive” in each case. Besides, in data set [7], the MIC was 16.5 µM (≈ 10 µg/mL). Moreover, the result with Escherichia coli and with Pseudomonas aeruginosa was inactive.

On to `CC(C)(C)CC(=O)Nc1ccc2[nH]c3c(C4=C[C@@]5(O)CC/C=C\CCCCN6CC[C@@H]4[C@]4(C[C@@H]7/C=C\CCCCN7[C@H]45)C6)nccc3c2c1`, for which the IC50 was 0.211 µM with Plasmodium falciparum [1]; 0.302 µM with Plasmodium falciparum [2]; “Not Active” in the data set on Candida albicans [3]; “Not Active” in the data set on Cryptococcus neoformans [4]; 1.36 µM in [6]; “Not Active” in the data set on Aspergillus fumigatus [8]. Also, in the data set on Vero, the Activity entry is on record as “Non-toxic”. For the same molecule, the MIC result in the data set with Cryptococcus neoformans [5], in the data set on Candida albicans [9] and in the data set with Aspergillus fumigatus [10] was “inactive” throughout. In addition, the minimum inhibitory concentration (MIC) in [7] was 1.89 µM (≈ 1.25 µg/mL). The outcome with Escherichia coli and with Pseudomonas aeruginosa was inactive.

Turning to `CC(C)C(=O)Nc1cccc2c1[nH]c1c(C3=C[C@@]4(O)CC/C=C\CCCCN5CC[C@@H]3[C@]3(C[C@@H]6/C=C\CCCCN6[C@H]34)C5)nccc12` [8-ISOBUTAMIDOMANZAMINE A], the IC50 in the data set on Plasmodium falciparum [1] was 0.158 µM; in the data set with Plasmodium falciparum [2], 0.205 µM; in the data set with Candida albicans [3] it was “Not Active”; with Cryptococcus neoformans [4] (setting [11]), 3.16 µM; in data set [6], 1.03 µM; in the data set with Aspergillus fumigatus [8], “Not Active”. Also, the Activity result with Vero is reported as “Non-toxic”. Besides, the MIC entry in the data set with Cryptococcus neoformans [5], with Candida albicans [9] and in the data set on Aspergillus fumigatus [10] was “inactive” in each case. In addition, the minimal inhibitory concentration (MIC) in [7] came to 1.97 µM (≈ 1.25 µg/mL). Besides, the outcome in the data set on Escherichia coli and with Pseudomonas aeruginosa was inactive.

`CCC(=O)Nc1cccc2c1[nH]c1c(C3=C[C@@]4(O)CC/C=C\CCCCN5CC[C@@H]3[C@]3(C[C@@H]6/C=C\CCCCN6[C@H]34)C5)nccc12` [8-N-PROPAMIDOMANZAMINE A]: the IC50 was 0.123 µM in the data set on Plasmodium falciparum [1]; 0.087 µM with Plasmodium falciparum [2]; over 32.3 µM in the data set on Candida albicans [3] (setting [12]); 1.52 µM in [6]; over 32.3 µM with Aspergillus fumigatus [8] (Aspergillus fumigatus, read-out: IC50). In the data set with Vero, the Activity entry is “Non-toxic”. Also, the lowest concentration to inhibit growth in [7] (MIC) was 2.02 µM (≈ 1.25 µg/mL). Further, the result with Escherichia coli and in the data set on Pseudomonas aeruginosa was inactive. In addition, the MIC entry with Candida albicans [9] and in the data set on Aspergillus fumigatus [10] was “inactive” in each case.

Consider `Oc1cccc2c1[nH]c1c(C3=C[C@@]4(O)CC/C=C\CCCCN5CC[C@@H]3[C@]3(C[C@@H]6/C=C\CCCCN6[C@H]34)C5)nccc12`, for which the IC50 in the data set on Plasmodium falciparum [1] came to 0.011 µM; in the data set on Plasmodium falciparum [2], 0.014 µM; with Candida albicans [3] (setting [12]) it was 6.21 µM; in the data set on Cryptococcus neoformans [4] (setting [11]), 3.55 µM; in data set [6], 0.177 µM. The MIC entry with Candida albicans [9] was “inactive”.
